# Experimental data: the supplement of paper PMC9663587
# Tests used:
# Torin2 = compound: C1=CC(=CC(=C1)N2C(=O)C=CC3=CN=C4C=CC(=CC4=C32)C5=CN=C(C=C5)N)C(F)(F)F [Torin2]
# R0-3306 = compound: C1=CC2=C(C=CC(=C2)C=C3C(=O)NC(=NCC4=CC=CS4)S3)N=C1 [R0-3306]
# AZD1775 = compound: C=CCn1c(=O)c2cnc(Nc3ccc(N4CCN(C)CC4)cc3)nc2n1-c1cccc(C(C)(C)O)n1 [AZD1775]
# [1] = compound: CC(=O)Nc1cccc(-n2c(=O)n(C3CC3)c(=O)c3c(Nc4ccc(I)cc4F)n(C)c(=O)c(C)c32)c1
# BSJ-03-123 = compound: CC(=O)c1c(C)c2cnc(Nc3ccc(N4CCN(CCOCCOCCOCCNC(=O)COc5cccc6c5C(=O)N(C5CCC(=O)NC5=O)C6=O)CC4)cn3)nc2n(C2CCCC2)c1=O [BSJ-03-123]
# [2] = compound: CC(=O)c1c(C)c2cnc(Nc3ccc(N4CCNCC4)cn3)nc2n(C2CCCC2)c1=O
# SHP099 = compound: CC1(CCN(CC1)C2=CN=C(C(=N2)N)C3=C(C(=CC=C3)Cl)Cl)N [SHP099]
# [3] = compound: CCC1=CN=CN=C1N2CCN(CC2)CC3=NC4=C(N3)C=C(C=C4)C(F)(F)F
# [4] = compound: CCCCOc1c(C(=O)c2c(F)cc(C)cc2F)c[nH]c2nncc1-2
# [5] = compound: CCN1CCN(Cc2ccc(Nc3ncc(F)c(-c4cc(F)c5nc(C)n(C(C)C)c5c4)n3)nc2)CC1
# Luminespib/NVP-AUY922 = compound: CCNC(=O)c1noc(-c2cc(C(C)C)c(O)cc2O)c1-c1ccc(CN2CCOCC2)cc1 [Luminespib/NVP-AUY922]
# Neratinib/HKI272 = compound: CCOc1cc2ncc(C#N)c(Nc3ccc(OCc4ccccn4)c(Cl)c3)c2cc1NC(=O)/C=C/CN(C)C [Neratinib/HKI272]
# Volasertib/BI6727 = compound: CC[C@@H]1C(=O)N(C)c2cnc(Nc3ccc(C(=O)N[C@H]4CC[C@H](N5CCN(CC6CC6)CC5)CC4)cc3OC)nc2N1C(C)C [Volasertib/BI6727]
# [6] = compound: CCc1cnn2c(NCc3ccc[n+]([O-])c3)cc(N3CCCC[C@H]3CCO)nc12
# LEE011/Ribociclib = compound: CN(C)C(=O)c1cc2cnc(Nc3ccc(N4CCNCC4)cn3)nc2n1C1CCCC1 [LEE011/Ribociclib]
# THZ1 = compound: CN(C)C/C=C/C(=O)Nc1ccc(C(=O)Nc2cccc(Nc3ncc(Cl)c(-c4c[nH]c5ccccc45)n3)c2)cc1 [THZ1]
# ABT-737 = compound: CN(C)CC[C@H](CSc1ccccc1)Nc1ccc(S(=O)(=O)NC(=O)c2ccc(N3CCN(Cc4ccccc4-c4ccc(Cl)cc4)CC3)cc2)cc1[N+](=O)[O-] [ABT-737]
# Saracatinib/AZD0530 = compound: CN1CCN(CCOc2cc(OC3CCOCC3)c3c(Nc4c(Cl)ccc5c4OCO5)ncnc3c2)CC1 [Saracatinib/AZD0530]
# Flavopiridol = compound: CN1CC[C@H](c2c(O)cc(O)c3c(=O)cc(-c4ccccc4Cl)oc23)[C@H](O)C1 [Flavopiridol]
# AZD2014 = compound: CNC(=O)c1cccc(-c2ccc3c(N4CCOC[C@@H]4C)nc(N4CCOC[C@@H]4C)nc3n2)c1 [AZD2014]
# [7] = compound: CO[C@@H](C)Cn1c(=O)n(C)c2cnc3ccc(-c4cncc(C(C)(C)O)c4)cc3c21
# Cabozantinib = compound: COc1cc2nccc(Oc3ccc(NC(=O)C4(C(=O)Nc5ccc(F)cc5)CC4)cc3)c2cc1OC [Cabozantinib]
# [8] = compound: COc1ccc2c(c1)[C@]1(C[C@H]1c1ccc3c(/C=C/c4ccc(CN5C[C@@H](C)O[C@@H](C)C5)cc4)n[nH]c3c1)C(=O)N2
# Doxorubicin = compound: COc1cccc2c1C(=O)c1c(O)c3c(c(O)c1C2=O)C[C@@](O)(C(=O)CO)C[C@@H]3O[C@H]1C[C@H](N)[C@H](O)[C@H](C)O1 [Doxorubicin]
# Taselisib/GDC0032 = compound: Cc1nc(-c2cn3c(n2)-c2ccc(-c4cnn(C(C)(C)C(N)=O)c4)cc2OCC3)n(C(C)C)n1 [Taselisib/GDC0032]
# Alpelisib/BYL719 = compound: Cc1nc(NC(=O)N2CCC[C@H]2C(N)=O)sc1-c1ccnc(C(C)(C)C(F)(F)F)c1 [Alpelisib/BYL719]
# Dasatinib = compound: Cc1nc(Nc2ncc(C(=O)Nc3c(C)cccc3Cl)s2)cc(N2CCN(CCO)CC2)n1 [Dasatinib]
# AZD7762 = compound: NC(=O)Nc1cc(-c2cccc(F)c2)sc1C(=O)N[C@H]1CCCNC1 [AZD7762]
# AZD5363 = compound: NC1(C(=O)N[C@@H](CCO)c2ccc(Cl)cc2)CCN(c2nc[nH]c3nccc2-3)CC1 [AZD5363]
# Vorinostat = compound: O=C(CCCCCCC(=O)Nc1ccccc1)NO [Vorinostat]
# Olaparib/AZD2281 = compound: O=C(c1cc(Cc2n[nH]c(=O)c3ccccc23)ccc1F)N1CCN(C(=O)C2CC2)CC1 [Olaparib/AZD2281]
# Ipatasertib/GDC0068 = compound: CC(C)NC[C@@H](C(=O)N1CCN(c2ncnc3c2[C@H](C)C[C@H]3O)CC1)c1ccc(Cl)cc1 [Ipatasertib/GDC0068]
# THZ-P1-2 = compound: CN(C)C/C=C/C(=O)NC1=CC=C(C=C1)C(=O)NC2=CC=CC(=C2)NC3=NC=NC(=C3)C4=CNC5=CC=CC=C54 [THZ-P1-2]
# 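Note: breast cancer and non-malignant breast epithelial cell lines, Deep Dye Drop or Dye Drop imaging, nine half-log doses, GR normalized to time-zero plates and DMSO-only controls.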
Cell Line,"GR50, 72 h (Torin2) [µM]","GR50, 72 h (R0-3306) [µM]","GR50, 72 h (AZD1775) [µM]","GR50, 72 h [1] [µM]","GR50, 72 h (BSJ-03-123) [µM]","GR50, 72 h [2] [µM]","GR50, 72 h (SHP099) [µM]","GR50, 72 h [3] [µM]","GR50, 72 h [4] [µM]","GR50, 72 h [5] [µM]","GR50, 72 h (Luminespib/NVP-AUY922) [µM]","GR50, 72 h (Neratinib/HKI272) [µM]","GR50, 72 h (Volasertib/BI6727) [µM]","GR50, 72 h [6] [µM]","GR50, 72 h (LEE011/Ribociclib) [µM]","GR50, 72 h (THZ1) [µM]","GR50, 72 h (ABT-737) [µM]","GR50, 72 h (Saracatinib/AZD0530) [µM]","GR50, 72 h (Flavopiridol) [µM]","GR50, 72 h (AZD2014) [µM]","GR50, 72 h [7] [µM]","GR50, 72 h (Cabozantinib) [µM]","GR50, 72 h [8] [µM]","GR50, 72 h (Doxorubicin) [µM]","GR50, 72 h (Taselisib/GDC0032) [µM]","GR50, 72 h (Alpelisib/BYL719) [µM]","GR50, 72 h (Dasatinib) [µM]","GR50, 72 h (AZD7762) [µM]","GR50, 72 h (AZD5363) [µM]","GR50, 72 h (Vorinostat) [µM]","GR50, 72 h (Olaparib/AZD2281) [µM]","GR50, 72 h (Ipatasertib/GDC0068) [µM]","GR50, 72 h (THZ-P1-2) [µM]"
CAL851,0.00862,6.55,0.212,0.0132,0.431,> 3.16,> 10,> 10,0.00814,1.3,0.00652,0.0339,0.00327,0.00469,> 10,0.0085,> 10,0.871,0.17,0.00819,< 0.001,5.34,0.00209,0.00552,0.0604,3.64,0.105,0.0421,> 10,1.2,5.05,–,–
HCC202,0.0137,5.71,0.051,> 1,3.36,> 3.16,> 10,> 10,0.0699,2.43,0.0114,0.0317,0.015,0.0137,> 10,0.0212,> 10,0.475,0.14,0.00237,0.00541,> 10,–,0.0268,0.00366,0.465,0.0186,0.0585,> 10,3.57,> 10,3.36,6.48
HCC1187,0.00305,–,0.0228,> 1,6.39,> 3.16,> 10,> 10,–,–,0.00363,2.5,0.0078,0.00577,> 10,0.0149,–,0.258,0.237,–,1.12,–,0.00763,0.00119,0.168,> 10,0.0343,0.0508,–,1.07,3.46,–,–
HCC1428,0.0128,–,–,> 1,–,0.073,–,> 10,–,0.00979,0.00286,1.43,0.0187,0.0171,–,–,4,> 10,–,–,–,> 10,–,0.00474,4.21,> 10,> 10,0.4,–,0.835,0.553,> 10,–
HCC1500,0.00186,–,–,0.142,–,> 3.16,–,1.66,–,0.479,0.00847,0.785,0.0116,0.0138,–,–,0.00851,0.259,–,–,–,4.67,–,0.0163,1.88,> 10,0.00348,0.0356,–,0.96,6.33,> 10,–
